Assay results: patent US20250382290A1, “SALTS OF SOS1 INHIBITORS” (MIRATI THERAPEUTICS, INC., priority 2022, published 2025)

System: pERK (KRas-mediated, SOS1-dependent) in MKN1 or H358 cells
Assay: cells
Details: read-out: IC50 (pERK inhibition)
Experimental: Assay day 1, cells were dosed with the compounds of the invention with a 10 μm starting concentration and serially diluted 3× for a total of 9 concentrations. The cells were incubated for approximately 0.5-1 hour with the compounds solubilized in DMSO at 37° C. Cells were immediately fixed by adding 50 μL of 4% formaldehyde to all wells in a fume hood and the plates were incubated for 20 minutes at room temperature. The formaldehyde was discarded from the plates and 150 μL of ice-cold methanol was added to permeabilize the cells for 10 minutes at −20° C. The methanol was discarded from each of the plates and any liquid remaining in the plate by tapping the plate against paper towels. […] The plates were incubated overnight at 4° C. on a shaker.
On Assay day 2, the primary antibody solution was removed. […] The secondary antibody solution as removed and each plate was washed with PBST 3× times. Any liquid remaining was discarded and the plate was imaged using the Licor Odyssey machine according to the manufacturer's instruction, using a set focus length at 3 mm and both 800 nm and 700 nm filters. The GAPDH normalized scan values for each well were divided by the average of vehicle wells to get the % of pERK inhibition. The IC50 values were then calculated with the Graph pad Prism software.

Structure (SMILES): Cc1c(C#N)cccc1[C@@H](C)Nc1nnc(C)c2cnc(N3CCOCC3)cc12 [Example 12-10, (R)-2-methyl-3-(1-((4-methyl-7-morpholinopyrido[3,4-d]pyridazin-1-yl)amino)ethyl)benzonitrile]
- IC50: 0.046 µM
